Measurements taken from PubChem BioAssay AID330 (DTP/NCI, 2004).
Values joined by “and” are separate entries in the source; they are usually repeats but may differ in a detail not shown here. Identical values can stand only once. Inconclusive results and toxic doses are left out.

Test system: P388 leukemia ip, CD2F1 mice, survival T/C
Assay: NCI In Vivo Anticancer Drug Screen. Data for tumor model P388 Leukemia (intraperitoneal) in CD2F1 (CDF1) mice
Conditions: endpoint: median survival time, higher = longer survival
Procedure, shortened: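 Mice carrying the transplanted tumor received test compound or vehicle. Survival was recorded in each group, and the value is the treated-group measurement divided by that of the vehicle-treated control group.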

[1] = dose: 12.5 mg/kg/injection, schedule: Q01DX009 (ip), vehicle: Klucel (hydroxypropylcellulose) (HPC)
[2] = dose: 25.0 mg/kg/injection, schedule: Q01DX009 (ip), vehicle: Klucel (hydroxypropylcellulose) (HPC)
[3] = dose: 50.0 mg/kg/injection, schedule: Q01DX005 (ip), vehicle: saline with Tween-80
[4] = dose: 100.0 mg/kg/injection, schedule: Q01DX005 (ip), vehicle: saline with Tween-80

## NC1C(=O)Nc2ccccc21 (configuration not stated)
dose: 60.0 mg/kg/injection, schedule: Q01DX005 (ip), vehicle: saline
  T/C: 95 % of control
dose: 120.0 mg/kg/injection, schedule: Q01DX005 (ip), vehicle: saline
  T/C: 103 % of control

## CCC(CC)C[Se][Se]CC(CC)CC
dose: 6.25 mg/kg/injection, schedule: Q01DX009 (ip), vehicle: Klucel (hydroxypropylcellulose) (HPC)
  T/C: 100 % of control
[1]
  T/C: 101 % of control
[2]
  T/C: 103 % of control

## CC(=O)NC1=C(N2CC2)C(=O)C(NC(C)=O)=C(N2CC2)C1=O
dose: 125.0 micrograms/kg/injection, schedule: Q01DX010 (ip), vehicle: saline
  T/C: 115 % of control
dose: 500.0 micrograms/kg/injection, schedule: Q01DX010 (ip), vehicle: saline
  T/C: 215 % of control
dose: 1000.0 micrograms/kg/injection, schedule: Q01DX010 (ip), vehicle: saline
  T/C: 255 % of control

## Cc1cnc(/C=N\NC(N)=S)c2cccc(N)c12
dose: 1.57 mg/kg/injection, schedule: Q01DX009 (ip), vehicle: saline with Tween-80
  T/C: 120 % of control
dose: 3.12 mg/kg/injection, schedule: Q01DX009 (ip), vehicle: saline with Tween-80
  T/C: 103 % of control
dose: 4.32 mg/kg/injection, schedule: Q01DX005 (ip), vehicle: clinical formulation
  T/C: 121 % of control
dose: 6.25 mg/kg/injection, schedule: Q01DX009 (ip), vehicle: water
  T/C: 170 % of control
dose: 12.0 mg/kg/injection, schedule: Q01DX005 (ip), vehicle: clinical formulation
  T/C: 152 % of control
[1]
  T/C: 162 % of control and 163 % of control
dose: 12.5 mg/kg/injection, schedule: Q01DX009 (ip), vehicle: other
  T/C: 188 % of control
dose: 12.5 mg/kg/injection, schedule: Q01DX009 (ip), vehicle: saline with Tween-80
  T/C: 168 % of control
dose: 12.5 mg/kg/injection, schedule: Q01DX009 (ip), vehicle: saline
  T/C: 150 % of control
dose: 12.5 mg/kg/injection, schedule: Q01DX009 (ip), vehicle: water
  T/C: 189 % of control
dose: 20.0 mg/kg/injection, schedule: Q01DX005 (ip), vehicle: clinical formulation
  T/C: 155 % of control
[2]
  T/C: 179 % of control and 193 % of control
dose: 25.0 mg/kg/injection, schedule: Q01DX009 (ip), vehicle: other
  T/C: 97 % of control
dose: 25.0 mg/kg/injection, schedule: Q01DX009 (ip), vehicle: saline with Tween-80
  T/C: 184 % of control
dose: 25.0 mg/kg/injection, schedule: Q01DX009 (ip), vehicle: saline
  T/C: 172 % of control
dose: 25.0 mg/kg/injection, schedule: Q01DX009 (ip), vehicle: water
  T/C: 218 % of control
dose: 50.0 mg/kg/injection, schedule: Q01DX009 (ip), vehicle: Klucel (hydroxypropylcellulose) (HPC)
  T/C: 109 % of control

## CSc1nc2nc[nH]c(=O)c2[nH]1
dose: 25.0 mg/kg/injection, schedule: Q01DX005 (ip), vehicle: saline with Tween-80
  T/C: 95 % of control
[3]
  T/C: 99 % of control
[4]
  T/C: 94 % of control

## CCN(CC)CCCNCc1cc(-c2ccccc2)nc2ccccc12
[3]
  T/C: 101 % of control
[4]
  T/C: 100 % of control
dose: 200.0 mg/kg/injection, schedule: Q01DX005 (ip), vehicle: saline with Tween-80
  T/C: 95 % of control

## N#CC(C(=O)C(N)=O)c1nc2ccccc2s1 (configuration not stated)
[3]
  T/C: 105 % of control
[4]
  T/C: 101 % of control

## CCCCCCCCCCCCCCCCOc1ccc(C(=O)CC(=O)OC)cc1
dose: 50.0 mg/kg/injection, schedule: Q01DX009 (ip), vehicle: other
  T/C: 103 % of control
dose: 100.0 mg/kg/injection, schedule: Q01DX009 (ip), vehicle: other
  T/C: 100 % of control
dose: 200.0 mg/kg/injection, schedule: Q01DX009 (ip), vehicle: other
  T/C: 95 % of control
dose: 400.0 mg/kg/injection, schedule: Q01DX009 (ip), vehicle: other
  T/C: 87 % of control

## O=c1nc2n(CC(O)CN3CCCCC3)c3cc(Cl)ccc3nc-2c(=O)[nH]1 (configuration not stated)
dose: 6.25 mg/kg/injection, schedule: Q01DX005 (ip), vehicle: saline
  T/C: 103 % of control
dose: 12.5 mg/kg/injection, schedule: Q01DX005 (ip), vehicle: saline
  T/C: 106 % of control

## CC(=O)OC1CCC2(C)C(=O)CCC3C=C(C(=O)C3CSc3ccc(Br)cc3)C(O)CC2C1(C)C (configuration not stated)
dose: 11.25 mg/kg/injection, schedule: Q01DX009 (ip), vehicle: Klucel (hydroxypropylcellulose) (HPC)
  T/C: 95 % of control
dose: 22.5 mg/kg/injection, schedule: Q01DX009 (ip), vehicle: Klucel (hydroxypropylcellulose) (HPC)
  T/C: 100 % of control
dose: 45.0 mg/kg/injection, schedule: Q01DX009 (ip), vehicle: Klucel (hydroxypropylcellulose) (HPC)
  T/C: 94 % of control
dose: 90.0 mg/kg/injection, schedule: Q01DX009 (ip), vehicle: Klucel (hydroxypropylcellulose) (HPC)
  T/C: 100 % of control

## O=CC(O)C(O)C(O)COc1cc(CO)cc2c1C(=O)c1ccccc1C2=O (configuration not stated)
dose: 12.5 mg/kg/injection, schedule: Q01DX005 (ip), vehicle: Klucel (hydroxypropylcellulose) (HPC)
  T/C: 100 % of control
dose: 25.0 mg/kg/injection, schedule: Q01DX005 (ip), vehicle: Klucel (hydroxypropylcellulose) (HPC)
  T/C: 107 % of control
dose: 50.0 mg/kg/injection, schedule: Q01DX005 (ip), vehicle: Klucel (hydroxypropylcellulose) (HPC)
  T/C: 106 % of control and 110 % of control
dose: 100.0 mg/kg/injection, schedule: Q01DX005 (ip), vehicle: Klucel (hydroxypropylcellulose) (HPC)
  T/C: 106 % of control and 107 % of control
